Results as given in ChEMBL document CHEMBL6177967, “Semisynthesis and biological evaluation of 17-hydroxybrevianamide N derivatives as anti-inflammatory agents by mediating NF-κB and MAPK signaling pathways” (Eur J Med Chem, 2025).
Active and inactive are the calls of the source. The rule behind the calls is not given here.

What was measured:
RAW264.7 [1] = test: Inhibition of MAPK signaling pathway in LPS-induced mouse RAW264.7 cells assessed as reduction in SAPK/JNK phosphorylation at 0.2 uM incubated for 24 hrs by Western blot analysis; format: cell-based
[2] = Downregulation of MAPK protein expression in LPS-induced mouse RAW264.7 cells at 0.2 uM incubated for 24 hrs by Western blot analysis relative to control; format: functional
RAW264.7 [3] = test: Inhibition of NFkappaB pathway activation in LPS-induced mouse RAW264.7 cells assessed as inhibition of p65 phosphorylation at 0.2 uM incubated for 24 hrs by Western blot analysis; format: cell-based
RAW264.7 [4] = test: Inhibition of MAPK signaling pathway in LPS-induced mouse RAW264.7 cells assessed as reduction in ERK phosphorylation at 0.2 uM incubated for 24 hrs by Western blot analysis; format: cell-based
RAW264.7 [5] = test: Inhibition of NFkappaB pathway activation in LPS-induced mouse RAW264.7 cells assessed as reduction in phosphorylated p65 level at 0.2 to 10 uM incubated for 24 hrs by Western blot analysis relative to control; format: cell-based; conditions: dose 0.2-10 µM
RAW264.7 [6] = test: Cytotoxicity against mouse RAW264.7 cells assessed as inhibition of cell growth at 2 uM incubated for 24 hrs by MTT assay; format: toxicity, cell-based; conditions: raw264.7, 24 h
RAW264.7 [7] = test: Anti-inflammatory activity in LPS-induced mouse RAW264.7 cells assessed as inhibition of TNF-alpha level at 2 uM incubated for 24 hrs by ELISA relative to control; format: functional
RAW264.7 [8] = test: Inhibition of NFkappaB pathway activation in LPS-induced mouse RAW264.7 cells assessed as reduction in phosphorylated IKBalpha level at 10 uM incubated for 24 hrs by Western blot analysis relative to control; format: cell-based
RAW264.7 [9] = test: Inhibition of MAPK signaling pathway in LPS-induced mouse RAW264.7 cells assessed as reduction in phosphorylated SAPK/JNK level at 10 uM incubated for 24 hrs by Western blot analysis; format: cell-based
RAW264.7 [10] = test: Anti-inflammatory activity in LPS-induced mouse RAW264.7 cells assessed as inhibition of IL-6 level at 2 uM incubated for 24 hrs by ELISA relative to control; format: functional
RAW264.7 [11] = test: Inhibition of NFkappaB pathway activation in LPS-induced mouse RAW264.7 cells assessed as inhibition of IKBalpha phosphorylation at 10 uM incubated for 24 hrs by Western blot analysis; format: cell-based
RAW264.7 [12] = test: Anti-inflammatory activity in LPS-induced mouse RAW264.7 cells assessed as inhibition of IL-1beta level at 2 uM incubated for 24 hrs by ELISA relative to control; format: functional
RAW264.7 [13] = test: Inhibition of MAPK signaling pathway in LPS-induced mouse RAW264.7 cells assessed as reduction in p38 phosphorylation at 0.2 uM incubated for 24 hrs by Western blot analysis; format: cell-based
RAW264.7 [14] = test: Inhibition of MAPK signaling pathway in LPS-induced mouse RAW264.7 cells assessed as reduction in phosphorylated p38 level at 10 uM incubated for 24 hrs by Western blot analysis; format: cell-based
RAW264.7 [15] = test: Anti-inflammatory activity in LPS-induced mouse RAW264.7 cells assessed as inhibition of NO levels incubated for 24 hrs; format: functional, cell-based; conditions: RAW264.7, 24 h

SMILES: C=CCOc1ccccc1C[C@H]1C(=O)N(C)C(=O)c2nc3ccccc3c(=O)n21
- inhibition (RAW264.7 [1]): Active
- Activity [2]: >30%
- inhibition (RAW264.7 [3]): Active
- inhibition (RAW264.7 [4]): Active
- inhibition (RAW264.7 [5]): 50%
- Activity (RAW264.7 [6]): Non-toxic
- inhibition at 2 µM (RAW264.7 [7]): 25.6%
- inhibition (RAW264.7 [8]): 59%
- inhibition (RAW264.7 [9]): Active; Reduction In Cellular P-Sapk/Jnk Level Was Almost Close To Untreated Control
- inhibition at 2 µM (RAW264.7 [10]): 54.5%
- inhibition (RAW264.7 [11]): Active
- inhibition at 2 µM (RAW264.7 [12]): 92.9%
- inhibition (RAW264.7 [13]): Active
- inhibition (RAW264.7 [14]): Active; Reduction In Cellular P-P38 Level Was Almost Close To Untreated Control
- IC50 (RAW264.7 [15]): 500 nM
